Experimental data taken from patent US12185723B2, “Herbicidally active 3-phenylisoxazoline-5-carboxamides of s-containing cyclopentenylcarboxylic esters” (Bayer Aktiengesellschaft, priority 2019, dated 2025).

Columns and labels:
Format in all cases: in vivo
[1] = test system: Amaranthus retroflexus; test: Post-emergence herbicidal action against AMARE
In short: (§1)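 Weeds sown in sandy loam, greenhouse-grown 2 to 3 weeks and treated at the one-leaf stage. Compounds formulated as WP or EC were sprayed onto green parts as aqueous suspension/emulsion with 0.5% additive at 600 l/ha water. Activity rated visually after about 3 weeks versus untreated controls (100% = plants dead, 0% = like control).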

[2] = test system: Matricaria inodora; test: Post-emergence herbicidal action against MATIN
In short: as §1

[3] = test system: Pharbitis purpurea; test: Post-emergence herbicidal action against PHBPU
In short: as §1

[4] = test system: Avena fatua; test: Post-emergence herbicidal action against AVEFA; conditions: visual rating about 3 weeks after treatment
In short: as §1

[5] = test system: Polygonum convolvulus; test: Post-emergence herbicidal action against POLCO
In short: as §1

[6] = test system: Viola tricolor; test: Post-emergence herbicidal action against VIOTR
Description: Post-Emergence Herbicidal Action Against Harmful Plants and Crop Plant Compatibility Seeds of monocotyledonous and dicotyledonous weeds and crop plants are placed in sandy loam in plastic or wood-fibre pots, covered with soil and cultivated in a greenhouse under controlled growth conditions. 2 to 3 weeks after sowing, the test plants are treated at the one-leaf stage. The compounds of the invention, formulated in the form of wettable powders (WP) or as emulsion concentrates (EC), are then sprayed onto the green parts of the plants as aqueous suspension or emulsion with addition of 0.5% additive at a water application rate of 600 l/ha (converted). After the test plants have been kept in the greenhouse under optimum growth conditions for about 3 weeks, the activity of the preparations is rated visually in comparison to untreated controls. For example, 100% activity=the plants have died, 0% activity=like control plants. [table]

[7] = test system: Echinochloa crus-galli; test: Post-emergence herbicidal action against ECHCG; conditions: visual rating about 3 weeks after treatment
In short: as §1

[8] = test system: Setaria viridis; test: Post-emergence herbicidal action against SETVI; conditions: visual rating about 3 weeks after treatment
In short: as §1

[9] = test system: Veronica persica; test: Post-emergence herbicidal action against VERPE
In short: as §1

[10] = test system: Stellaria media; test: Post-emergence herbicidal action against STEME
In short: as §1

[11] = test system: Alopecurus myosuroides; test: Post-emergence herbicidal action against ALOMY; conditions: visual rating about 3 weeks after treatment
In short: as §1

[12] = test system: DIGSA; test: Post-emergence herbicidal action against DIGSA; conditions: visual rating about 3 weeks after treatment
In short: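 Greenhouse-grown plants sprayed at one-leaf stage (2–3 weeks after sowing) with WP or EC formulations as aqueous suspension/emulsion plus 0.5% additive, 600 l/ha water. Activity rated visually about 3 weeks later versus untreated controls, 100% = plants dead, 0% = like controls.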

[13] = test system: Hordeum murinum; test: Post-emergence herbicidal action against HORMU
In short: as §1

[14] = test system: Abutilon theophrasti; test: Post-emergence herbicidal action against ABUTH; conditions: visual rating about 3 weeks after treatment
In short: as §1

[15] = test system: Lolium rigidum; test: Post-emergence herbicidal action against LOLRI; conditions: visual rating about 3 weeks after treatment
In short: as §1

[16] = 80 g a.i./ha, visual rating about 3 weeks after treatment

CSCCOC(=O)C1C=CC(NC(=O)C2(C)CC(c3cc(F)cc(F)c3)=NO2)C1 (stereo not shown) [Example I-06]
80%: Herbicidal action against [%] AMARE ([1]; 20 g a.i./ha) | Herbicidal action against [%] AMARE [1, 16] | Herbicidal action against [%] MATIN [2, 16] | Herbicidal action against [%] PHBPU ([3]; 20 g a.i./ha) | Herbicidal action against [%] PHBPU ([3]; 80 g a.i./ha) | Herbicidal action against [%] SETVI ([8]; 20 g a.i./ha) | Herbicidal action against [%] VERPE ([9]; 20 g a.i./ha) | Herbicidal action against [%] ABUTH ([14]; 20 g a.i./ha) | Herbicidal action against [%] ABUTH ([14]; 80 g a.i./ha)
100%: Herbicidal action against [%] AVEFA ([4]; 20 g a.i./ha) | Herbicidal action against [%] AVEFA ([4]; 80 g a.i./ha) | Herbicidal action against [%] ALOMY ([11]; 20 g a.i./ha) | Herbicidal action against [%] ALOMY ([11]; 80 g a.i./ha) | Herbicidal action against [%] LOLRI ([15]; 20 g a.i./ha) | Herbicidal action against [%] LOLRI ([15]; 80 g a.i./ha)
90%: Herbicidal action against [%] POLCO ([5]; 20 g a.i./ha) | Herbicidal action against [%] POLCO ([5]; 80 g a.i./ha) | Herbicidal action against [%] VIOTR ([6]; 20 g a.i./ha) | Herbicidal action against [%] ECHCG ([7]; 20 g a.i./ha) | Herbicidal action against [%] ECHCG ([7]; 80 g a.i./ha) | Herbicidal action against [%] SETVI ([8]; 80 g a.i./ha) | Herbicidal action against [%] VERPE ([9]; 80 g a.i./ha) | Herbicidal action against [%] STEME ([10]; 20 g a.i./ha) | Herbicidal action against [%] STEME ([10]; 80 g a.i./ha) | Herbicidal action against [%] DIGSA ([12]; 20 g a.i./ha) | Herbicidal action against [%] DIGSA ([12]; 80 g a.i./ha) | Herbicidal action against [%] HORMU ([13]; 20 g a.i./ha) | Herbicidal action against [%] HORMU ([13]; 80 g a.i./ha)

C=CC1(C(=O)NC2C=CC(C(=O)OCCSC)C2)CC(c2cc(F)cc(F)c2)=NO1 (stereo not shown) [Example I-18]
80%: Herbicidal action against [%] PHBPU ([3]; 20 g a.i./ha) | Herbicidal action against [%] PHBPU ([3]; 80 g a.i./ha) | Herbicidal action against [%] VIOTR ([6]; 80 g a.i./ha) | Herbicidal action against [%] SETVI ([8]; 20 g a.i./ha) | Herbicidal action against [%] SETVI ([8]; 80 g a.i./ha)
100%: Herbicidal action against [%] AVEFA ([4]; 80 g a.i./ha) | Herbicidal action against [%] ALOMY ([11]; 20 g a.i./ha) | Herbicidal action against [%] ALOMY ([11]; 80 g a.i./ha) | Herbicidal action against [%] HORMU ([13]; 20 g a.i./ha) | Herbicidal action against [%] HORMU ([13]; 80 g a.i./ha)
90%: Herbicidal action against [%] AMARE ([1]; 20 g a.i./ha) | Herbicidal action against [%] AMARE [1, 16] | Herbicidal action against [%] MATIN ([2]; 20 g a.i./ha) | Herbicidal action against [%] MATIN [2, 16] | Herbicidal action against [%] AVEFA ([4]; 20 g a.i./ha) | Herbicidal action against [%] POLCO ([5]; 20 g a.i./ha) | Herbicidal action against [%] POLCO ([5]; 80 g a.i./ha) | Herbicidal action against [%] VIOTR ([6]; 20 g a.i./ha) | Herbicidal action against [%] ECHCG ([7]; 20 g a.i./ha) | Herbicidal action against [%] ECHCG ([7]; 80 g a.i./ha) | Herbicidal action against [%] VERPE ([9]; 20 g a.i./ha) | Herbicidal action against [%] VERPE ([9]; 80 g a.i./ha) | Herbicidal action against [%] STEME ([10]; 20 g a.i./ha) | Herbicidal action against [%] STEME ([10]; 80 g a.i./ha) | Herbicidal action against [%] DIGSA ([12]; 20 g a.i./ha) | Herbicidal action against [%] DIGSA ([12]; 80 g a.i./ha) | Herbicidal action against [%] ABUTH ([14]; 20 g a.i./ha) | Herbicidal action against [%] ABUTH ([14]; 80 g a.i./ha) | Herbicidal action against [%] LOLRI ([15]; 20 g a.i./ha) | Herbicidal action against [%] LOLRI ([15]; 80 g a.i./ha)
